Experimental data taken from publication PMC5234078, “Integrating mass spectrometry with MD simulations reveals the role of lipids in Na^+/H^+ antiporters” (Nature Communications, 2017).

Biological target: T1, NapA (wild-type NapA, MVV) (Thermus thermophilus, UniProt Q72IM4)
T1 construct: gene TT_C1108; homodimer, 82,450 Da; in C8E4
Assay: native nESI-MS and tandem MS of protein-lipid complexes; ion mobility unfolding
Settings: detergent C8E4, ammonium acetate pH 7.5; annular, non-specific phospholipid binding

T1 sequence (Q72IM4 entry or part of it): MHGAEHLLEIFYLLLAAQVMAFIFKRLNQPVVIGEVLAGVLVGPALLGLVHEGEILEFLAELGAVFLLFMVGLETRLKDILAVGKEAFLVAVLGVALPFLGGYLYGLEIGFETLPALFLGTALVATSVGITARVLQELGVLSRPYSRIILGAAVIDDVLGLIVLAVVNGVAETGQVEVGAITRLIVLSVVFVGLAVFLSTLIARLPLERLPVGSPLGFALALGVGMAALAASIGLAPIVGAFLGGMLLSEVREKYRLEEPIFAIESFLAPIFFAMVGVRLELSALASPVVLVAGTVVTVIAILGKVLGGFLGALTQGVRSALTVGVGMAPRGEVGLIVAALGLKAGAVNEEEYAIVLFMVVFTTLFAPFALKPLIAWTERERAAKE

Row | Compound | native nESI-MS and tandem MS of protein-lipid complexes; ion mobility unfolding
1 | CCCCCCCC/C=C\CCCCCCCC(=O)O[C@H](COC(=O)CCCCCCCCCCCCCCC)COP(=O)(O)OCCN [PE, 1-palmitoyl-2-oleoyl-glycerophospho-ethanolamine] | NapA with PE show a concentration-dependent increase in the number of lipid adducts
2 | CCCCCCCC/C=C\CCCCCCCC(=O)O[C@H](COC(=O)CCCCCCCCCCCCCCC)COP(=O)(O)OCC(O)CO (some centres unmarked) [PG, 1-palmitoyl-2-oleoyl-phosphatidyl-glycerol] | Interactions with negatively charged PG lipids exhibit higher gas-phase stabilities than with zwitterionic PE
